{
  "source": "paper PMC3488456",
  "about": "(Bioorganic & medicinal chemistry letters, 2012)",
  "key": {"[1]": {"experiment": "Rat pharmacokinetics", "format": "in vivo, Sprague-Dawley rats", "conditions": "for clearance: Sprague-Dawley, rat, in vivo, iv, 1 mg/kg"}, "[2]": {"experiment": "Mouse brain penetration", "format": "in vivo, C57Bl6 mice", "conditions": "mice"}, "[3]": {"test_system": "LRH1", "conditions": "same FRET assay; cited from earlier work"}, "[4]": {"test_system": "SF1", "conditions": "same FRET assay; cited from earlier work"}, "[5]": {"test_system": "FXR", "conditions": "same FRET assay; cited from earlier work"}, "[6]": {"test_system": "RORα", "conditions": "same FRET assay; cited from earlier work"}, "[7]": {"test_system": "LXRα", "conditions": "reporter-gene assay; cited from earlier work"}, "[8]": {"test_system": "LXRβ", "conditions": "reporter-gene assay; cited from earlier work"}, "[9]": {"molecular_target": "T1, Rev-erbα (Homo sapiens, UniProt P20393)", "T1 sequence (P20393 1-614)": "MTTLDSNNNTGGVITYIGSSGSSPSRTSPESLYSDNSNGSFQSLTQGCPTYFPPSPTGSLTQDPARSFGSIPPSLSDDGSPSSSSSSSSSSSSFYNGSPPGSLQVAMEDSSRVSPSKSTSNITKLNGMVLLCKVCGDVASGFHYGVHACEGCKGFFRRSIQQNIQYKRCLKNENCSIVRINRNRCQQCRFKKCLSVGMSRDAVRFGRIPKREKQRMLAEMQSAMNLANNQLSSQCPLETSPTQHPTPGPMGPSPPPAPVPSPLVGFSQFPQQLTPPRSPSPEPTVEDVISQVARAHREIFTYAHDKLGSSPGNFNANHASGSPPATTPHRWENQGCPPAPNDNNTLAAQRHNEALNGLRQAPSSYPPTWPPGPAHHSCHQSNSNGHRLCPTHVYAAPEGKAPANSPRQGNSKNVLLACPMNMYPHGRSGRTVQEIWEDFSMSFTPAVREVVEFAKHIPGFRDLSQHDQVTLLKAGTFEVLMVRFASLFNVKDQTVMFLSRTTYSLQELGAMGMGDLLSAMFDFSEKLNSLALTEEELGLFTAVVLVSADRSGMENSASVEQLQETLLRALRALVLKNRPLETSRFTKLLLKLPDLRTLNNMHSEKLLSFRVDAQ", "format": "cell-based"}},
  "data": [
    {"molecule": "O=C(c1cccc2ccccc12)N1Cc2ccccc2CC1CNCc1ccccc1", "note": "(centres unmarked) [Compound 7d]", "values": [
      {"measurement": "clearance", "setting": "[1]", "result": 43, "unit": "mL/min/kg"},
      {"measurement": "oral bioavailability / oral absorption (in words)", "setting": "[1]; rats", "result": "poor oral absorption"}
    ]},
    {"molecule": "O=C(c1cccc2ccccc12)N1Cc2ccccc2CC1COCc1ccccc1", "note": "(centres unmarked) [Compound 6d]", "values": [
      {"measurement": "clearance", "setting": "[1]", "result": 39, "unit": "mL/min/kg"},
      {"measurement": "oral bioavailability / oral absorption (in words)", "setting": "[1]; rats", "result": "poor oral absorption"}
    ]},
    {"molecule": "CC(C)(C)OC(=O)CN(Cc1ccc(Cl)cc1)Cc1ccc([N+](=O)[O-])s1", "note": "[Compound 1]", "values": [
      {"measurement": "clearance", "setting": "[1]", "result": 353, "unit": "mL/min/kg"},
      {"measurement": "oral bioavailability / oral absorption (in words)", "setting": "[1]; rats", "result": "poor oral bioavailability"},
      {"measurement": "plasma clearance (in words)", "setting": "[1]; rats", "result": "very high plasma clearance"},
      {"measurement": "volume of distribution (in words)", "setting": "[1]; rats", "result": "high volume of distribution"},
      {"measurement": "rodent pharmacokinetics (in words)", "setting": "[1]; rodent", "result": "poor"},
      {"measurement": "brain penetration (in words)", "setting": "[2]", "result": "good brain penetration"},
      {"measurement": "activity on LRH1", "setting": "[3]", "result": "no activity"},
      {"measurement": "activity on SF1", "setting": "[4]", "result": "no activity"},
      {"measurement": "activity on FXR", "setting": "[5]", "result": "no activity"},
      {"measurement": "activity on RORα", "setting": "[6]", "result": "no activity"},
      {"measurement": "activity on LXRα", "setting": "[7]", "result": "no activity"},
      {"measurement": "activity on LXRβ", "setting": "[8]", "result": "no activity"}
    ]},
    {"molecule": "CCOC(=O)C1Cc2ccccc2CN1C(=O)c1ccno1", "note": "(centres unmarked) [Compound 3n]", "values": [
      {"measurement": "EC50", "setting": "[9]", "result": 2500, "unit": "nM"}
    ]}
  ]
}
